From PMC7531004, “Discovery of gramicidin A analogues with altered activities by multidimensional screening of a one-bead-one-compound library” (Nature Communications, 2020)
Where “and” joins values, the source holds several entries; their conditions need not be identical. Identical values can stand only once. Like-named read-outs stand apart in the source and are kept apart here. Where a SMILES comes first, the peptide text is derived from it. [ ]: non-standard residue; d: D form. The star is where a group is joined. NHCH2CH2OH = OCCN*; For = O=C*

Tests used:
[1] = H+/Na+ transport assay of purified peptides; details: for Supplementary Figure 5 dose-response value (H+/Na+ transport): three replicate lines
Protocol: First, we evaluated the ion channel function of 1 using liposomes. To mimic a negatively charged Gram-positive bacterial membrane, the liposomes were prepared as large unilamellar vesicles (LUVs) comprising a 19:1 mixture of egg yolk phosphatidylcholine (EYPC) and egg yolk phosphatidylglycerol (EYPG)[57]. Pyranine, a pH-dependent fluorescent dye[58], was encapsulated in the LUVs and a pH gradient was applied across the membrane. H^+/Na^+ transport induced by a peptide was monitored by changes in the fluorescence intensity of pyranine.

[2] = Membrane disruption assay of purified peptides (carboxyfluorescein leakage); format: biochemical; parameters: key: % lysis; Triton X-100 = 100%, DMSO = 0%; details: three replicate lines
Protocol: Membrane disruption assay of purified peptides. 5(6)-Carboxyfluorescein (CF)-encapsulated large […]
through Nuclepore polycarbonate filters mounted in the mini-extruder apparatus. A solution of egg yolk phosphatidylcholine (EYPC, 22.0 mg, 28.9 µmol) in CHCl3 (225 µL) and egg yolk phosphatidylglycerol (1.2 0 […]
mM HEPES, 100 mM NaCl, 20 mM CF) by sonication. After five -times freeze-thaw cycles, the lipid […]
concentration of the resultant CF -encapsulated LUV suspension was deduced from the phosphatidylcholine concentration determined by using Phospholipid C -Test Wako. The lipid concentration of the LUV […]
as 5-fold serial dilution. The solution of peptide (2.0 µL) and the CF-encapsulated LUV suspension (200 […]
The resultant suspension was incubated at room temperature for 30 min. The fluorescence (Ex. 490 nm/Em. 517 nm) of each well was measured on Gemini EM microplate reader. Triton X-100/H2O (5/95, 3.0 µL), DMSO (2.0 µL), and the LUV suspension were mixed in each plate to determine 100% lysis. […]
was used to determine 0% lysis. The membrane disruption activities of tested peptides ( I) were normalized against 100% lysis by Triton X-100 (Imax) and 0% lysis by DMSO ( I0) according to Supplementary Equation 2 , where Ix is the fluorescence intensity.
The membrane disruption activities of the purified peptides were plotted as means of three replicates (Supplementary Figure 1).

[3] = test system: MSSA1 (methicillin-susceptible Staphylococcus aureus); format: cell-based
Protocol: Evaluation of antibacterial spectra of purified peptides. The MIC assay was performed according to the Clinical and Laboratory Standards Institute protocols. The antibacterial activities of the purified peptides A1, B01–B04, B11–B13, B21, and B22 were measured using the broth microdilution method. 6 Serial dilutions of the peptides were prepared in cation adjusted Mueller Hinton Broth. Each dilution (100 µL) was dispensed to each well of the round-bottom plate to obtain final concentrations ranging from 64 µg/mL to 0.00024 µg/mL. Bacteria were grown at 37 °C overnight on Tryptic Soy Broth or Mueller Hinton Broth agar plates.
The bacterial colonies were suspended in 0.9% saline to obtain OD 625 of 0.08–0.13 using a spectrophotometer UV-1280 (Shimadzu). The resultant suspension was diluted with cation adjusted Mueller Hinton Broth (1/20). The resultant mixture (10 .0 µL) was inoculated to each well of the plates (approximately 5 × 10^4 CFU/well), mixed, and incubated at 37 °C for 18–24 h. The MIC value was determined as the minimum concentration that inhibited growth of bacteria. For Streptococcus species, cation adjusted Mueller Hinton Broth supplemented with 5% laked horse blood was used. […]

[4] = read-out: EC50, H+/Na+ transport assay, 1st experiment
[5] = read-out: EC50, H+/Na+ transport assay, 2nd experiment
[6] = read-out: EC50, H+/Na+ transport assay, 3rd experiment
[7] = read-out: H+/Na+ transport activity EC50, EYPC/EYPG (19:1) LUVs
[8] = read-out: H+/Na+ transport activity/EC50, mean ± SD of three independent experiments

Row | SMILES | Supplementary Figure 5 dose-response value (H+/Na+ transport) ([1]; concentration 0.000512 nM) | Supplementary Figure 5 dose-response value (H+/Na+ transport) ([1]; concentration 0.00256 nM) | Supplementary Figure 5 dose-response value (H+/Na+ transport) ([1]; concentration 0.0128 nM) | Supplementary Figure 5 dose-response value (H+/Na+ transport) ([1]; concentration 0.064 nM) | Supplementary Figure 5 dose-response value (H+/Na+ transport) ([1]; concentration 0.32 nM) | Supplementary Figure 5 dose-response value (H+/Na+ transport) ([1]; concentration 1.6 nM) | Supplementary Figure 5 dose-response value (H+/Na+ transport) ([1]; concentration 8 nM) | Supplementary Figure 5 dose-response value (H+/Na+ transport) ([1]; concentration 40 nM) | Supplementary Figure 5 dose-response value (H+/Na+ transport) ([1]; concentration 200 nM) | Supplementary Figure 5 dose-response value (H+/Na+ transport) ([1]; concentration 1000 nM) | Supplementary Figure 5 dose-response value (H+/Na+ transport) ([1]; concentration 5000 nM) | EC50 [1, 4] [nM] | EC50 [1, 5] [nM] | EC50 [1, 6] [nM] | EC50 [1, 7] [nM] | EC50 [1, 8] [nM] | Supplementary Figure 1 dose-response value ([2]; concentration 0.000512 nM) | Supplementary Figure 1 dose-response value ([2]; concentration 0.00256 nM) | Supplementary Figure 1 dose-response value ([2]; concentration 0.0128 nM) | Supplementary Figure 1 dose-response value ([2]; concentration 0.064 nM) | also measured
1 | CC(C)C[C@@H](NC(=O)[C@H](C)NC(=O)[C@H](NC(=O)[C@H](C)NC(=O)CNC(=O)[C@@H](NC=O)C(C)C)C(C)C)C(=O)N[C@H](C(=O)N[C@@H](C(=O)N[C@@H](Cc1c[nH]c2ccccc12)C(=O)N[C@@H](C(=O)N[C@@H](Cc1c[nH]c2ccccc12)C(=O)N[C@H](CC(C)C)C(=O)N[C@@H](Cc1c[nH]c2ccccc12)C(=O)N[C@H](CC(C)C)C(=O)N[C@@H](Cc1c[nH]c2ccccc12)C(=O)NCCO)C(C)C)C(C)C)C(C)C [B02] (For-VGA[dV]A[dL]V[dV]W[dV]W[dL]W[dL]W-NHCH2CH2OH) | 0.2643 and 0.7827 and 0.1241 | 2.146 and 0.0547 and 1.671 | 4.163 and 0.6112 and 1.64 | 7.246 and 2.883 and 3.652 | 11.0985 and 10.392 and 10.3413 | 29.1914 and 27.2825 and 29.9486 | 56.3118 and 49.6431 and 51.0872 | 73.3306 and 69.0608 and 69.1921 | 73.6961 and 72.6071 and 72.9778 | 75.3536 and 79.2012 and 75.9728 | 75.4417 and 72.7674 and 77.9824 | 3.08 | 1.68 | 5.38 | 3.4 | 3.38 ± 1.87 | 9.02 and 15.736 and 15.2512 | 10.3575 and 0.7916 and 7.576 | 7.7612 and 17.627 and 12.0633 | 6.7018 and 5.872 and 12.3383 | Supplementary Figure 1 dose-response value ([2]; concentration 0.32 nM): 3.446 and 4.916 and 7.303; Supplementary Figure 1 dose-response value ([2]; concentration 1.6 nM): 10.6531 and 8.102 and 5.996; Supplementary Figure 1 dose-response value ([2]; concentration 8 nM): 14.5931 and 12.2206 and 13.5025; Supplementary Figure 1 dose-response value ([2]; concentration 40 nM): 11.4708 and 19.6235 and 9.068; Supplementary Figure 1 dose-response value ([2]; concentration 200 nM): 17.1246 and 21.9524 and 27.5088; Supplementary Figure 1 dose-response value ([2]; concentration 1000 nM): 23.4943 and 22.4951 and 16.9683; Supplementary Figure 1 dose-response value ([2]; concentration 5000 nM): 38.5863 and 36.6933 and 43.5874; antibacterial activity/MIC [3]: 32 µg/mL
2 | CC(C)C[C@@H](NC(=O)[C@H](C)NC(=O)CNC(=O)[C@@H](NC=O)C(C)C)C(=O)N[C@@H](C)C(=O)N[C@@H](C(=O)N[C@H](C(=O)N[C@@H](C(=O)N[C@@H](Cc1c[nH]c2ccccc12)C(=O)N[C@@H](C(=O)N[C@@H](Cc1c[nH]c2ccccc12)C(=O)N[C@@H](C(=O)N[C@@H](Cc1c[nH]c2ccccc12)C(=O)N[C@@H](C(=O)N[C@@H](Cc1c[nH]c2ccccc12)C(=O)NCCO)C(C)C)C(C)C)C(C)C)C(C)C)C(C)C)C(C)C [B03] (For-VGA[dL]A[dV]V[dV]W[dV]W[dV]W[dV]W-NHCH2CH2OH) | 3.426 and 4.542 and 4.454 | 4.063 and 4.369 and 6.1349 | 8.086 and 3.88 and 7.199 | 11.12 and 10.2864 and 11.0165 | 19.1274 and 20.4439 and 18.4811 | 44.4719 and 42.2282 and 45.2028 | 70.1046 and 68.0194 and 61.5034 | 68.5122 and 68.0449 and 67.6654 | 74.8622 and 71.9344 and 68.9589 | 72.6177 and 71.4474 and 69.5798 | 79.6141 and 83.2523 and 73.0858 | 1.77 | 1.01 | 1.18 | 1.3 | 1.32 ± 0.4 | 5.505 and 15.3461 and 13.2964 | 8.036 and 15.949 and 9.456 | 13.2228 and 16.5208 and 14.0976 | 9.063 and 6.7749 and 3.531 | Supplementary Figure 1 dose-response value ([2]; concentration 0.32 nM): 12.8598 and 15.0844 and 11.8922; Supplementary Figure 1 dose-response value ([2]; concentration 1.6 nM): 5.299 and 14.829 and 8.996; Supplementary Figure 1 dose-response value ([2]; concentration 8 nM): 22.9494 and 19.7369 and 18.966; Supplementary Figure 1 dose-response value ([2]; concentration 40 nM): 32.4215 and 16.7903 and 25.2195; Supplementary Figure 1 dose-response value ([2]; concentration 200 nM): 37.1629 and 34.3426 and 29.4644; Supplementary Figure 1 dose-response value ([2]; concentration 1000 nM): 37.6674 and 31.8257 and 42.0921; Supplementary Figure 1 dose-response value ([2]; concentration 5000 nM): 72.3831 and 71.3728 and 73.9246; antibacterial activity/MIC [3]: 32 µg/mL
3 | CC(C)C[C@@H](NC(=O)[C@H](Cc1c[nH]c2ccccc12)NC(=O)[C@H](NC(=O)[C@@H](NC(=O)[C@H](NC(=O)[C@H](C)NC(=O)[C@H](NC(=O)[C@H](C)NC(=O)CNC(=O)[C@@H](NC=O)C(C)C)C(C)C)C(C)C)C(C)C)C(C)C)C(=O)N[C@@H](Cc1c[nH]c2ccccc12)C(=O)N[C@@H](C(=O)N[C@@H](Cc1c[nH]c2ccccc12)C(=O)N[C@@H](C(=O)N[C@@H](Cc1c[nH]c2ccccc12)C(=O)NCCO)C(C)C)C(C)C [B01] (For-VGA[dV]A[dV]V[dV]W[dL]W[dV]W[dV]W-NHCH2CH2OH) | 1.909 and 4.796 and 3.187 | 2.582 and 3.582 and 5.168 | 3.806 and 6.172 and 6.274 | 6.1 and 7.567 and 7.349 | 11.2834 and 14.5673 and 12.3484 | 32.2794 and 31.2161 and 30.2392 | 59.2885 and 57.8145 and 59.5121 | 71.8328 and 71.2991 and 68.3245 | 69.4784 and 69.9514 and 71.5477 | 71.9268 and 73.661 and 73.9278 | 81.6644 and 79.4929 and 76.8567 | 2.67 | 1.67 | 2.49 | 2.3 | 2.28 ± 0.54 | 5.613 and 12.0264 and 5.319 | 11.158 and 7.538 and 10.5473 | 8.299 and 14.9537 and 14.0939 | 5.499 and 8.531 and 5.078 | Supplementary Figure 1 dose-response value ([2]; concentration 0.32 nM): 13.2144 and 15.7695 and 7.692; Supplementary Figure 1 dose-response value ([2]; concentration 1.6 nM): 9.848 and 4.6318 and 9.4348; Supplementary Figure 1 dose-response value ([2]; concentration 8 nM): 14.4288 and 20.3717 and 10.7944; Supplementary Figure 1 dose-response value ([2]; concentration 40 nM): 26.5947 and 14.0138 and 18.3251; Supplementary Figure 1 dose-response value ([2]; concentration 200 nM): 33.1976 and 27.0157 and 30.6543; Supplementary Figure 1 dose-response value ([2]; concentration 1000 nM): 29.7517 and 27.7024 and 34.1347; Supplementary Figure 1 dose-response value ([2]; concentration 5000 nM): 48.3001 and 45.6479 and 77.7437; antibacterial activity/MIC [3]: 16 µg/mL
